# Experimental data from patent US10206907B2, “Compounds useful for the treatment of degenerative and inflammatory diseases” (GALAPAGOS NV, priority 2008, dated 2019).
# Experiments:
# [1] = molecular target: Recombinant human JAK1 catalytic domain (Homo sapiens (Human), UniProt P23458); assay: JAK1 inhibition assay; format: biochemical; details: semi-quantitative score
# Summary of the method: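 IC50 values come from dose-response series, with each point expressed as percent inhibition of cpm. Vehicle sets full activity and 10 μM staurosporine sets background. Incorporated radioactivity counted by scintillation after washing with 75 mM phosphoric acid.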
# [2] = molecular target: Recombinant human JAK2 catalytic domain (Homo sapiens (Human), UniProt O60674); assay: JAK2 inhibition assay; format: biochemical; details: semi-quantitative score
# Chain of Recombinant human JAK2 catalytic domain (O60674 808-1132): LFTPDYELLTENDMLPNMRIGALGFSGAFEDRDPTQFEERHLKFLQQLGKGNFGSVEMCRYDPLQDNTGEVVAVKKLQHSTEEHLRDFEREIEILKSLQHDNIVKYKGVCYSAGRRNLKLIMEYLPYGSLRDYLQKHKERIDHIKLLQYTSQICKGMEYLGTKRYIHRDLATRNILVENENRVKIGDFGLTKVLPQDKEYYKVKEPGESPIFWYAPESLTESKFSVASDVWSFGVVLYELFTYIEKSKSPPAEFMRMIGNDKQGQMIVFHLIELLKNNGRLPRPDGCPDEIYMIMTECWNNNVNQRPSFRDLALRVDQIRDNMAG
# Experimental: After 90 min at 30° C., reactions were stopped by adding of 25 μL/well of 150 mM phosphoric acid. […] Plates were washed 6 times with 300 μL per well of a 75 mM phosphoric acid solution and the bottom of the plates was sealed. 40 μL/well of Microscint-20 was added, the top of the plates was sealed and readout was performed using the Topcount (Perkin Elmer). Kinase activity was calculated by subtracting counts per minute (cpm) obtained in the presence of a positive control inhibitor (10 μM staurosporine) from cpm obtained in the presence of vehicle. The ability of a test compound to inhibit this activity was determined as: Percentage inhibition=((cpm determined for sample with test compound present−cpm determined for sample with positive control inhibitor) divided by (cpm determined in the presence of vehicle−cpm determined for sample with positive control inhibitor))*100%.
# Dose dilution series were prepared for the compounds enabling the testing of dose-response effects in the JAK2 assay and the calculation of the IC50 for each compound.
# Chain of Recombinant human JAK1 catalytic domain (P23458 850-1154): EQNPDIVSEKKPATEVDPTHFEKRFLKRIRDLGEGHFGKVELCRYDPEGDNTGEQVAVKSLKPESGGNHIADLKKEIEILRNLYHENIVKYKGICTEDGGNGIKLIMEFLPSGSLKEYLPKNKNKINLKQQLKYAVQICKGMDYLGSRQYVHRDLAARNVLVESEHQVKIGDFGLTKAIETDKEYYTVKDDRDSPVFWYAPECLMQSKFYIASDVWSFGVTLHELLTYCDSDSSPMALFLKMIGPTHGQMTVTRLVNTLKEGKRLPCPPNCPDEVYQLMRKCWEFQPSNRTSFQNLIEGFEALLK
IC50 [1] [nM],IC50 [2] [nM],Compound
–,101 to 500,"O=C(Nc1nc2cccc(-c3ccc(CN4CCC(F)(F)C4)cc3)n2n1)C1CC1 [Compound 264, Cyclopropanecarboxylic acid {5-[4-(3,3-difluoro-pyrrolidin-1-ylmethyl)-phenyl]-[1,2,4]triazolo[1,5-a]pyridin-2-yl}-amide]"
101 to 500,501 to 1000,"NC(=O)C1CCN(C(=O)c2ccc(-c3cccc4nc(NC(=O)C5CC5)nn34)cc2)CC1 [Compound 274, 1-{4-[2-(Cyclopropanecarbonyl-amino)-[1,2,4]triazolo[1,5-a]pyridin-5-yl]-benzoyl}-piperidine-4-carboxylic acid amide]"
101 to 500,> 1000,"CC(C)(C)OC(=O)NC1CN(Cc2ccc(-c3cccc4nc(NC(=O)C5CC5)nn34)cc2)C1 [Compound 279, (1-{4-[2-(Cyclopropanecarbonyl-amino)-[1,2,4]triazolo[1,5-a]pyridin-5-yl]-benzyl}-azetidin-3-yl)-carbamic acid tert-butyl ester]"
101 to 500,> 1000,"CCOC1CCN(Cc2ccc(-c3cccc4nc(NC(=O)C5CC5)nn34)cc2)CC1 [Compound 282, Cyclopropanecarboxylic acid {5-[4-(4-ethoxy-piperidin-1-ylmethyl)-phenyl]-[1,2,4]triazolo[1,5-a]pyridin-2-yl}-amide]"
> 1000,> 1000,"CC(=O)N(C)C1CN(Cc2ccc(-c3cccc4nc(NC(=O)C5CC5)nn34)cc2)C1 [Compound 283, Cyclopropanecarboxylic acid (5-{4-[3-(acetyl-methyl-amino)-azetidin-1-ylmethyl]-phenyl}-[1,2,4]triazolo[1,5-a]pyridin-2-yl)-amide]"
101 to 500,> 1000,"CCN(CC)C1CCN(C(=O)c2ccc(-c3cccc4nc(NC(=O)C5CC5)nn34)cc2)C1 (stereo not shown) [Compound 285, Cyclopropanecarboxylic acid {5-[4-(3-diethylamino-pyrrolidine-1-carbonyl)-phenyl]-[1,2,4]triazolo[1,5-a]pyridin-2-yl}-amide]"
101 to 500,501 to 1000,"O=C(Nc1nc2cccc(-c3ccc(C(=O)N4CCC(O)(c5ccccc5)CC4)cc3)n2n1)C1CC1 [Compound 286, Cyclopropanecarboxylic acid {5-[4-(4-hydroxy-4-phenyl-piperidine-1-carbonyl)-phenyl]-[1,2,4]triazolo[1,5-a]pyridin-2-yl}-amide]"
101 to 500,> 1000,"O=C(Nc1nc2cccc(-c3ccc(C(=O)N4CCCC(C(=O)N5CCCCC5)C4)cc3)n2n1)C1CC1 (stereo not shown) [Compound 290, Cyclopropanecarboxylic acid (5-{4-[3-(piperidine-1-carbonyl)-piperidine-1-carbonyl]-phenyl}-[1,2,4]triazolo[1,5-a]pyridin-2-yl)-amide]"
101 to 500,> 1000,"CCOC1CCN(C(=O)c2ccc(-c3cccc4nc(NC(=O)C5CC5)nn34)cc2)CC1 [Compound 294, Cyclopropanecarboxylic acid {5-[4-(4-ethoxy-piperidine-1-carbonyl)-phenyl]-[1,2,4]triazolo[1,5-a]pyridin-2-yl}-amide]"
101 to 500,> 1000,"CCN(CC)C(=O)C1CCCN(C(=O)c2ccc(-c3cccc4nc(NC(=O)C5CC5)nn34)cc2)C1 (stereo not shown) [Compound 295, 1-{4-[2-(Cyclopropanecarbonyl-amino)-[1,2,4]triazolo[1,5-a]pyridin-5-yl]-benzoyl}-piperidine-3-carboxylic acid diethylamide]"

# The next lines start with the molecule.
Compound,IC50 [1] [nM],IC50 [2] [nM]
"CN1CCN(c2ccc(NC(=O)c3ccc(-c4cccc5nc(NC(=O)C6CC6)nn45)cc3)cn2)CC1 [Compound 205, 4-[2-(Cyclopropanecarbonyl-amino)-[1,2,4]triazolo[1,5-a]pyridin-5-yl]-N-[6-(4-methyl-piperazin-1-yl)-pyridin-3-yl]-benzamide]",101 to 500,501 to 1000
"CC1(C)COCCN1Cc1ccc(-c2cccc3nc(NC(=O)C4CC4)nn23)cc1 [Compound 213, Cyclopropanecarboxylic acid {5-[4-(3,3-dimethyl-morpholin-4-ylmethyl)-phenyl]-[1,2,4]triazolo[1,5-a]pyridin-2-yl}-amide]",101 to 500,101 to 500
"C[C@@H]1CN(Cc2ccc(-c3cccc4nc(NC(=O)C5CC5)nn34)cc2)C[C@H](C)O1 [Compound 214, Cyclopropanecarboxylic acid {5-[4-((2R,6S)-2,6-dimethyl-morpholin-4-ylmethyl)-phenyl]-[1,2,4]triazolo[1,5-a]pyridin-2-yl}-amide]",101 to 500,101 to 500
"CC1(C)COCCN1C(=O)c1ccc(-c2cccc3nc(NC(=O)C4CC4)nn23)cc1 [Compound 216, Cyclopropanecarboxylic acid {5-[4-(3,3-dimethyl-morpholine-4-carbonyl)-phenyl]-[1,2,4]triazolo[1,5-a]pyridin-2-yl}-amide]",101 to 500,101 to 500
"O=C(Nc1nc2cccc(-c3ccc(C(=O)N4C[C@@H]5C[C@H]4CO5)cc3)n2n1)C1CC1 [Compound 217, Cyclopropanecarboxylic acid {5-[4-((1S,4S)-2-oxa-5-aza-bicyclo[2.2.1]heptane-5-carbonyl)-phenyl]-[1,2,4]triazolo[1,5-a]pyridin-2-yl}-amide]",101 to 500,501 to 1000
"Cn1nc(C2CC2)cc1NC(=O)c1ccc(-c2cccc3nc(NC(=O)C4CC4)nn23)cc1 [Compound 218, 4-[2-(Cyclopropanecarbonyl-amino)-[1,2,4]triazolo[1,5-a]pyridin-5-yl]-N-(5-cyclopropyl-2-methyl-2H-pyrazol-3-yl)-benzamide]",101 to 500,101 to 500
"O=C(Nc1nc2cccc(-c3ccc(C(=O)N4CCC(C(=O)N5CCOCC5)CC4)cc3)n2n1)C1CC1 [Compound 219, Cyclopropanecarboxylic acid (5-{4-[4-(morpholine-4-carbony)-piperidine-1-carbonyl]-phenyl}-[1,2,4]triazolo[1,5-a]pyridin-2-yl)-amide]",> 1000,> 1000
"CC(=O)N1CCN(C(=O)c2ccc(-c3cccc4nc(NC(=O)C5CC5)nn34)cc2)CC1 [Compound 220, Cyclopropanecarboxylic acid {5-[4-(4-acetyl-piperazine-1-carbonyl)-phenyl]-[1,2,4]triazolo[1,5-a]pyridin-2-yl}-amide]",101 to 500,501 to 1000
"O=C(Nc1nc2cccc(-c3ccc(CN4C[C@@H]5C[C@H]4CO5)cc3)n2n1)C1CC1 [Compound 230, Cyclopropanecarboxylic acid (5-{4-[(1S,4S)-1-(2-oxa-5-aza-bicyclo[2.2.1]hept-5-yl)methyl]-phenyl}-[1,2,4]triazolo[1,5-a]pyridin-2-yl)-amide]",101 to 500,101 to 500
"O=C(Nc1nc2cccc(-c3ccc(CNc4ccc(N5CCOCC5)nc4)cc3)n2n1)C1CC1 [Compound 237, Cyclopropanecarboxylic acid (5-{4-[(6-morpholin-4-yl-pyridin-3-ylamino)-methyl]-phenyl}-[1,2,4]triazolo[1,5-a]pyridin-2-yl)-amide]",101 to 500,501 to 1000
"O=C(Nc1nc2cccc(-c3ccc(CN4CCC(O)CC4)cc3)n2n1)C1CC1 [Compound 242, Cyclopropanecarboxylic acid {5-[4-(4-hydroxy-piperidin-1-ylmethyl)-phenyl]-[1,2,4]triazolo[1,5-a]pyridin-2-yl}-amide]",101 to 500,501 to 1000
"CC(C)(O)C1CCN(Cc2ccc(-c3cccc4nc(NC(=O)C5CC5)nn34)cc2)CC1 [Compound 243, Cyclopropanecarboxylic acid (5-{4-[4-(1-hydroxy-1-methyl-ethyl)-piperidin-1-ylmethyl]-phenyl}-[1,2,4]triazolo[1,5-a]pyridin-2-yl)-amide]",101 to 500,501 to 1000
"CCN(CC)C1CCN(Cc2ccc(-c3cccc4nc(NC(=O)C5CC5)nn34)cc2)CC1 [Compound 247, Cyclopropanecarboxylic acid {5-[4-(4-diethylamino-piperidin-1-ylmethyl)-phenyl]-[1,2,4]triazolo[1,5-a]pyridin-2-yl}-amide]",> 1000,> 1000
"O=C(Nc1nc2cccc(-c3ccc(CNc4cc(C(F)(F)F)ccc4F)cc3)n2n1)C1CC1 [Compound 248, Cyclopropanecarboxylic acid (5-{4-[(2-fluoro-5-trifluoromethyl-phenylamino)-methyl]-phenyl}-[1,2,4]triazolo[1,5-a]pyridin-2-yl)-amide]",101 to 500,101 to 500
"O=C(Nc1nc2cccc(-c3ccc(CN4CCC(CO)CC4)cc3)n2n1)C1CC1 [Compound 250, Cyclopropanecarboxylic acid {5-[4-(4-hydroxymethyl-piperidin-1-ylmethyl)-phenyl]-[1,2,4]triazolo[1,5-a]pyridin-2-yl}-amide]",101 to 500,501 to 1000
"O=C(Nc1nc2cccc(-c3ccc(CNc4ccccc4)cc3)n2n1)C1CC1 [Compound 261, Cyclopropanecarboxylic acid [5-(4-phenylaminomethyl-phenyl)-[1,2,4]triazolo[1,5-a]pyridin-2-yl]-amide]",–,101 to 500
"CC(=O)N(C)C1CCN(Cc2ccc(-c3cccc4nc(NC(=O)C5CC5)nn34)cc2)C1 (stereo not shown) [Compound 262, Cyclopropanecarboxylic acid (5-{4-[3-(acetyl-methyl-amino)-pyrrolidin-1-ylmethyl]-phenyl}-[1,2,4]triazolo[1,5-a]pyridin-2-yl)-amide]",–,101 to 500
CN(C)C1CCN(Cc2ccc(-c3cccc4nc(NC(=O)C5CC5)nn34)cc2)C1 (stereo not shown) [Compound 263],–,101 to 500
